Residues, ends and D or L forms follow the SMILES beside them. *: point of attachment. X1 = O=C1NC(=O)/C(=C/c2cccc(OCC(=O)*)c2)S1; 4Abz = Nc1ccc(C(=O)O)cc1
Experiment: not given
Conditions: not given

Row | melting point [°C] | Molecule
1 | 256 | COc1cc(/C=C2\SC(=O)NC2=O)cc(I)c1O
2 | 310 to 314 | O=C1NC(=O)/C(=C/c2ccc3cc(O)ccc3c2)S1
3 | 330 to 333 | O=C1NC(=O)C(=Cc2c[nH]c3ccc([N+](=O)[O-])cc23)S1
4 | 152 to 154 | O=C1NC(=O)/C(=C/c2c(Cl)cccc2Cl)S1
5 | 331 to 333 | COc1cc(O)cc(OC)c1/C=C1\SC(=O)NC1=O
6 | 104 to 105 | Cc1cccc(C)c1/C=C1\SC(=O)NC1=O
7 | 241 to 242 | COc1cccc(OC)c1/C=C1\SC(=O)NC1=O
8 | 265 to 266 | O=C1NC(=O)/C(=C/c2cc3ccccc3o2)S1
9 | 259 to 263 | CN(C)c1ccc(/C=C/C=C2\SC(=O)NC2=O)cc1
10 | 203 to 210 | CC(/C=C1\SC(=O)NC1=O)=C\c1ccccc1
11 | 251 to 254 | O=C1NC(=O)/C(=C/C(Cl)=C/c2ccccc2)S1
12 | 338 to 347 | O=C1NC(=O)/C(=C/c2cc3ccccc3[nH]c2=O)S1
13 | 200 to 202 | c1cc(COc2ccc3ccccc3c2)cc(-c2nnn[nH]2)c1

Experiment: not given
Conditions: inherent limitation, background statement; cited from earlier work

Row | Molecule | absorption half-life
14 | soluble human insulin hexamer: "inherent limitation of the absorption half-life to about 4 hours for a soluble human insulin hexamer" | about 4 hours

Same assay, conditions: soluble preparations, background statement; cited from earlier work

Row | Molecule | absorption rate (time) after subcutaneous injection
15 | Co^3+-hexamer: "absorption rates vary between about 1 hour (for rapid-acting insulin analogues ...) and about 4 hours (Co^3+-hexamer)" | about 4 hours

Experiment: Disappearance rate from the subcutaneous depot following subcutaneous injection in pigs (T50% of A14 Tyr(125I) insulin)
Type: in vivo, pig
Conditions: Asp^B28 human insulin, ligand added in concentrations lower than that of Zn2+, s.c.
Text: The slow release (prolonged action) properties of certain formulations of the present invention was characterized by the disappearance rate from the subcutaneous depot following subcutaneous injections in pigs. T50% is the time when 50% of the A14 Tyr(^125I) insulin has disappeared from the site of injection as measured with an external γ-counter (Ribel et al., The Pig as a Model for Subcutaneous Absorption in Man. In: M. Serrano-Rtios and P. J. Lefebre (Eds): Diabetes (1985) Proceedings of the 12th congress of the International Diabetes Federation, Madrid, Spain, 1985 (Excerpta Medica, Amsterdam (1986), 891-896). The composition of a series of protracted formulations is given in the table below together with the T50% values. The disappearance curves are illustrated in FIG. 3a-d. For comparison, the T50% for the corresponding insulin preparations formulated without the ligands would be about 2 hours.
The induction of slow release by addition of exogenous ligands of the invention affords further advantages in terms of versatility regarding the choice of insulin species and release patterns. Consequently, human or mutant insulins such as Asp^B28, Lys^B28Pro^B29, or Gly^A21Lys^B3Glu^B29 may be formulated as slow- or dual-release preparations by adding variable amounts of His^B10Zn^2+-site ligand. […]

Row | Molecule | release pattern of the formulation
16 | N=C(N)NCCC[C@H](NC(=O)[C@H](CCCNC(=N)N)NC(=O)[C@H](CCCNC(=N)N)NC(=O)[C@H](CCCNC(=N)N)NC(=O)[C@H](CCCNC(=N)N)NC(=O)CNC(=O)CNC(=O)c1ccc(NC(=O)COc2cccc(/C=C3\SC(=O)NC3=O)c2)cc1)C(N)=O [TZD-Abz-G2R5, 4-{2-[3-(2,4-Dioxothiazolidin-5-ylidenemethyl)phenoxy]acetylamino}benzoyl-Gly2-Arg5-NH2] ({X1-4Abz}-GGRRRRR-NH2) | distinctly dual-release formulation

Same assay, conditions: Asp^B28 human insulin, ligand added in slight excess of the Zn2+ concentration, s.c.

Row | Molecule | T50%
17 | N=C(N)NCCC[C@H](NC(=O)[C@H](CCCNC(=N)N)NC(=O)[C@H](CCCNC(=N)N)NC(=O)[C@H](CCCNC(=N)N)NC(=O)[C@H](CCCNC(=N)N)NC(=O)CNC(=O)CNC(=O)c1ccc(NC(=O)COc2cccc(/C=C3\SC(=O)NC3=O)c2)cc1)C(N)=O [TZD-Abz-G2R5, 4-{2-[3-(2,4-Dioxothiazolidin-5-ylidenemethyl)phenoxy]acetylamino}benzoyl-Gly2-Arg5-NH2] ({X1-4Abz}-GGRRRRR-NH2) | about 14.8

— patent US7879893B2, “Ligands for the HisB10 Zn2 + sites of the R-state insulin hexamer” (Novo Nordisk A/S, priority 2001, dated 2011)
